These are literature values, as cited in patent US20170296470A1, “TWO SPEED MONOLOTHIC SYSTEM FOR CONTROLLED RELEASE OF DRUGS” (Matripharm Inc., priority 2011, published 2017).

For the series the following is noted: for numbers needed to harm: one out of N patients likely to suffer a first-time heart attack: patients in the age group of 65 and over; for risk of heart attack increased: patients prescribed the NSAID vs those who had not taken these drugs in the previous three years.

`CC(C)Cc1ccc(C(C)C(=O)O)cc1` (centres unmarked) [ibuprofen]: the “numbers needed to harm: one out of N patients likely to suffer a first-time heart attack” value (“numbers needed to harm: one out” below) is recorded as 1005 patients and the “risk of heart attack increased” value was 24%.
Take `CS(=O)(=O)c1ccc(C2=C(c3ccccc3)C(=O)OC2)cc1` [rofecoxib]: the “numbers needed to harm: one out” value is 695 patients.
On to `O=C(O)Cc1ccccc1Nc1c(Cl)cccc1Cl` [diclofenac], for which the “numbers needed to harm: one out” value is 521 patients and the “risk of heart attack increased” value is recorded as 55%.
